Test results taken from the NIST ThermoML archive (doi:10.1021/acs.jced.6b00536).
Where “and” joins values, the source holds several entries; their conditions need not be identical. Identical values can stand only once.

Details: Gas, Frequency=0.05 MHz, Single path-length method

FC(F)(F)C(F)(F)F [hexafluoroethane]
Details	speed of sound
287.9 K, 225.6 kPa	134.47 m/s
287.9 K, 244.5 kPa	134.2 m/s
287.9 K, 262 kPa	133.96 m/s
293.2 K, 80.5 kPa	137.71 m/s
293.2 K, 85.4 kPa	137.65 m/s
293.2 K, 90.3 kPa	137.61 m/s
293.2 K, 111.1 kPa	137.3 m/s and 137.31 m/s
293.2 K, 127.3 kPa	137.08 m/s and 137.09 m/s
293.2 K, 150.6 kPa	136.79 m/s and 136.8 m/s
293.2 K, 175 kPa	136.48 m/s
293.2 K, 175.1 kPa	136.49 m/s
293.2 K, 199 kPa	136.16 m/s
293.2 K, 203.7 kPa	136.09 m/s
293.2 K, 208.3 kPa	136.06 m/s
293.2 K, 229.9 kPa	135.75 m/s and 135.74 m/s
293.2 K, 249.1 kPa	135.49 m/s
293.2 K, 249.2 kPa	135.5 m/s
293.2 K, 265.6 kPa	135.26 m/s
293.2 K, 267 kPa	135.26 m/s
298.5 K, 82 kPa	138.94 m/s
298.5 K, 91.9 kPa	138.8 m/s
298.5 K, 113.1 kPa	138.55 m/s
298.5 K, 129.7 kPa	138.33 m/s
298.5 K, 153.4 kPa	138.03 m/s
298.5 K, 178.3 kPa	137.71 m/s
298.5 K, 202.8 kPa	137.42 m/s
298.5 K, 212.2 kPa	137.32 m/s
298.5 K, 234.2 kPa	137.02 m/s
298.5 K, 253.9 kPa	136.77 m/s
298.5 K, 272 kPa	136.54 m/s
303.7 K, 83.4 kPa	140.14 m/s
303.7 K, 93.5 kPa	140.03 m/s
303.7 K, 115.2 kPa	139.76 m/s
303.7 K, 132 kPa	139.56 m/s
303.7 K, 156.2 kPa	139.26 m/s
303.7 K, 181.5 kPa	138.98 m/s
303.7 K, 206.4 kPa	138.67 m/s
303.7 K, 216.1 kPa	138.57 m/s
303.7 K, 238.5 kPa	138.3 m/s
303.7 K, 258.6 kPa	138.06 m/s
303.7 K, 277.2 kPa	137.85 m/s
308.9 K, 84.9 kPa	141.33 m/s
308.9 K, 95.1 kPa	141.19 m/s
308.9 K, 117.2 kPa	140.94 m/s
308.9 K, 134.2 kPa	140.73 m/s
308.9 K, 158.9 kPa	140.47 m/s
308.9 K, 184.7 kPa	140.18 m/s
308.9 K, 210.1 kPa	139.9 m/s
308.9 K, 219.9 kPa	139.79 m/s
308.9 K, 242.8 kPa	139.54 m/s
308.9 K, 263.3 kPa	139.32 m/s
308.9 K, 282.1 kPa	139.06 m/s
314.1 K, 86.3 kPa	142.49 m/s
314.1 K, 96.8 kPa	142.38 m/s
314.1 K, 119.2 kPa	142.15 m/s
314.1 K, 136.6 kPa	141.94 m/s
314.1 K, 161.6 kPa	141.69 m/s
314.1 K, 187.9 kPa	141.4 m/s
314.1 K, 213.8 kPa	141.12 m/s
314.1 K, 223.7 kPa	140.99 m/s
314.1 K, 247.1 kPa	140.76 m/s
314.1 K, 267.9 kPa	140.53 m/s
314.1 K, 287.2 kPa	140.33 m/s
319.3 K, 87.7 kPa	143.67 m/s
319.3 K, 98.4 kPa	143.57 m/s
319.3 K, 121.2 kPa	143.32 m/s
319.3 K, 138.9 kPa	143.13 m/s
319.3 K, 164.4 kPa	142.88 m/s
319.3 K, 191.2 kPa	142.61 m/s
319.3 K, 217.5 kPa	142.34 m/s
319.3 K, 227.6 kPa	142.24 m/s
319.3 K, 251.3 kPa	141.97 m/s
319.3 K, 272.7 kPa	141.78 m/s
319.3 K, 292.2 kPa	141.56 m/s
324.5 K, 89.2 kPa	144.83 m/s
324.5 K, 100 kPa	144.71 m/s
324.5 K, 123.2 kPa	144.49 m/s
324.5 K, 141.2 kPa	144.31 m/s
324.5 K, 167.2 kPa	144.07 m/s
324.5 K, 194.4 kPa	143.8 m/s
324.5 K, 221.2 kPa	143.52 m/s
324.5 K, 231.5 kPa	143.44 m/s
324.5 K, 255.7 kPa	143.2 m/s
324.5 K, 277.3 kPa	142.99 m/s
324.5 K, 297.1 kPa	142.79 m/s
